Test results from PMC12345401, “The mRNA Translation Inhibitor Vioprolide A Prevents Inflammatory Pain‐Like Behaviour With Limited Action on Already Established Pain‐Like Behaviour in Mice” (European Journal of Pain (London, England), 2025).
“Also recorded” adds a separate entry of the source.

What was measured:
rodents = system: rodents; parameters: method as in earlier work; settings: local treatment, ref Geranton et al. [2009], Jimenez-Diaz et al. [2008], Price et al. [2007]; cited from earlier work
mice = settings: cited from earlier work; for cytokines (interleukin-1β, interleukin-6, tumour necrosis factor) in peritoneal lavage after zymosan-induced peritonitis: Stark et al. [2019]
C57BL/6N mice [1] = test: Accelerating rotarod test; assay type: in vivo, mouse; settings: 3 mg/kg s.c. into the neck; naive mice; 20 and 44 h after administration
Protocol: (§1) For the accelerating rotarod test, mice were placed on a rotarod treadmill (Ugo Basile, Gemonio, Italy) at increasing speed (4–40 rpm over 300 s; cutoff time 300 s) and trained for several consecutive days. Only mice that reached 300 s without falling off during the training sessions were included in the experiment. In the vertical pole test, mice were placed with the head pointing upward on a vertical pole and the time needed to reach the ground was recorded (cutoff time 20 s). After baseline measurements, vioprolide A (3 mg/kg) or vehicle (1% DMSO in 0.9% NaCl) was s.c. administered into the neck and the accelerating rotarod test immediately followed by the vertical pole test was performed 20 and 44 h after drug administration. Three trials per mouse were used for evaluation (Balzulat et al. [2024]).

C57BL/6N mice [2] = test: Zymosan-induced paw inflammation, mechanical hypersensitivity (dynamic plantar aesthesiometer); assay type: in vivo, mouse; settings: 0.3, 1 and 3 mg/kg s.c. 16 h prior to intraplantar zymosan; 1-72 h post-zymosan; vs vehicle
Protocol: (§2) Paw inflammation was induced by injecting 20 μL of a zymosan A suspension (5 mg/mL in PBS without Ca^2+/Mg^2+, pH 7.4; Sigma‐Aldrich, St. Louis, USA) into the plantar side of a hindpaw (Petersen et al. [2019]). Vioprolide A (0.3, 1 or 3 mg/kg) or vehicle (1% DMSO in 0.9% NaCl) was s.c. administered into the neck in a volume of 100 μL 16 h prior to the intraplantar zymosan injection.
(§3) Paw withdrawal latencies following mechanical stimulation were assessed using a dynamic plantar aesthesiometer (Ugo Basile, Gemonio, Italy), which compresses a stainless‐steel probe (0.5‐mm diameter) against the plantar surface of the hindpaw through a wire mesh bottom on which the mice are placed. The applied force was increased from 0 to 5 g over a period of 10 s (0.5 g/s ramp) and then remained constant at 5 g for an additional 10 s (total cutoff time, 20 s). An unequivocal paw withdrawal was evaluated as a response. The paw withdrawal latency was calculated as the average of three to four consecutive exposures with at least 20 s in between. The area under the curve was calculated using Prism 10 (Graph Pad) software.

C57BL/6N mice [3] = test: Vertical pole test; assay type: in vivo, mouse; settings: 3 mg/kg s.c. into the neck; naive mice; 20 and 44 h after administration
Protocol: as §1

C57BL/6N mice [4] = test: Zymosan-induced paw oedema (plethysmometer); assay type: in vivo, mouse; settings: 0.3, 1 and 3 mg/kg s.c. 16 h prior to intraplantar zymosan; vs vehicle
Protocol: as §2
The volume of the hindpaw was measured using a plethysmometer (Ugo Basile, Gemonio, Italy) according to the manufacturer's instructions. The dipping solution contained 0.8–0.9 g/L NaCl in distilled water and 2–3 mL/L wetting compound (Ugo Basile, Gemonio, Italy) to reduce drop and meniscus build‐up. The paw volume was calculated as a mean of three measurements. The area under the curve was calculated using Prism 10 (Graph Pad) software.

[5] = Pharmacokinetic profile, plasma (LC-MS); assay type: in vivo; settings: 0.3 mg/kg i.p.
Protocol: (§4) The pharmacokinetic profile of vioprolide A was determined by staff of Pharmacelsus (Saarbrücken, Germany) in male C57BL/6 mice as described (Balzulat et al. [2024]). A single dose of 0.3 mg/kg vioprolide A (in NaCl 0.9% + 1% DMSO) was i.p. administered, and two blood samples were obtained from each animal retrobulbarly under short isoflurane anaesthesia (at 0.25 and 0.5 h from 3 mice; at 1 and 2 h from 3 mice; and at 4 and 8 h from 3 mice). Immediately after the last blood sample was taken, the animal was euthanised by cervical dislocation, and the brain was collected. Plasma and brain concentrations of vioprolide A were determined by LC–MS analysis. The pharmacokinetic analysis was performed applying a non‐compartment model using the Kinetica 5.0 software (Thermo Scientific, Waltham, USA). All given parameters were obtained by trapezoid area calculation.

C57BL/6N mice [6] = test: Von Frey filament test in naive mice; assay type: in vivo, mouse; settings: 3 mg/kg s.c. into the neck, 22 and 46 h after administration
Protocol: Immediately after the vertical pole test, mice were placed on a wire‐mesh platform in Plexiglas cylinders and habituated for approximately 1 h. Von Frey filaments ranging from 0.04 to 4 g (Ugo Basile, Gemonio, Italy) were applied to the plantar surface of a hind paw for 1 s with a force causing the filament to bend. Starting with the lowest force, each filament was applied 10 times with a break of at least 2 min. The number of paw withdrawal reactions per 10 applications was used to calculate the withdrawal frequency (Beaulieu‐Laroche et al. [2020]). Measurements were performed at baseline and 22 and 46 h after vioprolide A or vehicle administration.

C57BL/6N mice [7] = test: Spared nerve injury (SNI)-induced neuropathy, mechanical hypersensitivity; assay type: in vivo, mouse; settings: 0.3 mg/kg i.p. on Day 14 after SNI; observed over 48 h
Protocol: as §3
The SNI model was performed as described previously (Bourquin et al. [2006]; Petersen et al. [2019]). Briefly, under isoflurane anaesthesia the tibial and common peroneal branches of the sciatic nerve were ligated and dissected distally. The sural nerve remained intact and the mice developed hypersensitivity in the lateral area of the hindpaw. Vioprolide A (0.3 mg/kg) or vehicle (1% DMSO in 0.9% NaCl) were i.p. administered in a volume of 100 μL 14 days after SNI. Paw withdrawal latencies following mechanical stimulation were assessed using a dynamic plantar aesthesiometer as described above.

[8] = Pharmacokinetic profile, brain levels (LC-MS); assay type: in vivo; settings: 0.3 mg/kg i.p., mouse brain, over 8 h
Protocol: as §4

C57BL/6N mice [9] = test: CFA-induced paw inflammation, mechanical hypersensitivity; assay type: in vivo, mouse
Protocol: as §3
Paw inflammation was induced by injecting 20 μL of complete Freund's adjuvant (CFA; containing 1 mg/mL heat‐killed Mycobacterium tuberculosis in paraffin oil 85% and mannide monooleate 15%; Sigma‐Aldrich, St. Louis, USA) into the plantar side of a hindpaw (Petersen et al. [2019]). Vioprolide A (0.3, 1 or 3 mg/kg), diclofenac (50 mg/kg; Sigma‐Aldrich, St. Louis, USA), or vehicle (1% DMSO in 0.9% NaCl) was i.p. administered in a volume of 100 μL 24 h after the intraplantar CFA injection. Paw withdrawal latencies following mechanical stimulation were assessed using a dynamic plantar aesthesiometer as described above.

C57BL/6N mice [10] = test: Zymosan-induced peritonitis, dynamic weight bearing; assay type: in vivo, mouse; settings: 0.3 mg/kg s.c. into the neck 16 h prior to i.p. zymosan; DWB 5 h after zymosan; vs vehicle
Protocol: Acute peritonitis was induced by a single intraperitoneal (i.p.) injection (0.5 mL) of a zymosan A suspension (2 mg/mL in phosphate‐buffered saline (PBS) without Ca^2+/Mg^2+; Sigma‐Aldrich, Steinheim, Germany and Gibco, Darmstadt, Germany) as described (Stark et al. [2019]). Vioprolide A (0.3 mg/kg; kindly provided by the group of Prof. Rolf Müller, Helmholtz Institute for Pharmaceutical Research Saarland (HIPS), Helmholtz Center for Infection Research and Department of Pharmacy, Saarland University, Saarbrücken, Germany) or vehicle (1% DMSO in 0.9% NaCl) was subcutaneously (s.c.) injected into the neck (to prevent direct interaction with the i.p. applied zymosan) in a volume of 100 μL 16 h prior to the zymosan injection. An automated dynamic weight bearing (DWB) device (Bioseb, Boulogne, France) was used to assess the pain‐like behaviour during zymosan‐induced peritonitis. […] The recorded weight distribution was analysed using the DWB software as described (Laux‐Biehlmann et al. [2016]; Stark et al. [2019]). A zone was considered valid when the following parameters were detected: ≥ 0.8 g on one captor with a minimum of two adjacent captors recording ≥ 1.0 g. A time segment was considered valid if ≥ 3 stable pictures were detected (Laux‐Biehlmann et al. [2016]; Stark et al. [2019]). […]

C57BL/6N mice [11] = system: C57BL/6N mice; parameters: method as in Metzner et al. [2021]; settings: positive control in a previous study; ref Metzner et al. [2021]; cited from earlier work
[12] = male, C57BL/6, ip, mouse plasma

## CO[C@H]1C[C@@H]2CC[C@@H](C)[C@@](O)(O2)C(=O)C(=O)N2CCCC[C@H]2C(=O)O[C@H]([C@H](C)C[C@@H]2CC[C@@H](O)[C@H](OC)C2)CC(=O)[C@H](C)/C=C(\C)[C@@H](O)[C@@H](OC)C(=O)[C@H](C)C[C@H](C)/C=C/C=C/C=C/1C [rapamycin]
rodents
  persistent pain-like behaviour: attenuated persistent pain‐like behaviour

## COC(=O)C[C@](O)(CCCC(C)(C)O)C(=O)O[C@@H]1C(OC)=C[C@]23CCCN2CCc2cc4c(cc2[C@H]13)OCO4 [homoharringtonine]
mice; ref Burgers et al. [2024]
  cytokines (interleukin-1β, interleukin-6, tumour necrosis factor) in peritoneal lavage after zymosan-induced peritonitis: reduced the amount of cytokines
  pain behaviour during zymosan-induced peritonitis: ameliorated the pain behaviour

## C/C=C1/NC(=O)[C@@H]2CSC(=N2)[C@@H]2C[C@@H](C)N2C(=O)[C@@H](CC(C)C)NC(=O)[C@H](C)NC(=O)[C@@H](O)COC(=O)[C@H](C(C)C)N(C)C(=O)[C@H]([C@@H](C)O)NC(=O)[C@@H]2CCCCN2C1=O [vioprolide A]
C57BL/6N mice [1]
  motor function, time on accelerating rotarod: did not affect the time spent on the rotarod; also recorded: did not impair motor function
C57BL/6N mice [2]
  zymosan-induced mechanical hypersensitivity (paw withdrawal latency, time course and AUC): significantly ameliorated; also recorded: significantly reduced
C57BL/6N mice [3]
  motor function, vertical pole test: did not affect; also recorded: did not impair motor function
C57BL/6N mice [4]
  zymosan-induced paw edema (paw volume, time course and AUC): decreased in a dose‐dependent manner; also recorded: significantly reduced
[5]; mouse plasma
  %AUCextra (extrapolated part of AUC0-inf): 3.9%
  t 1/2z (half-life of the terminal slope): 1.0 h
  t z (time of the last quantifiable sample): 4.0 h
[5]; male, C57BL/6, intraperitoneal, mouse plasma, read-out: C z (last analytically quantifiable concentration)
  concentration at 4 h: 0.1 ng/mL
[5]; [12]
  AUC(0-t): 3.6 ng·h/mL
  Cmax: 7.8 ng/mL
  Tmax: 0.25 h
[5]; male, C57BL/6, ip, mouse plasma, extrapolated to infinity
  AUC(0-inf): 3.8 ng·h/mL
[5]; male, C57BL/6, ip, mouse plasma, read-out: CL/f (total body clearance after extravascular administration) (converted)
  CL/F: 1330 mL/min/kg
[5]; male, C57BL/6, ip, mouse plasma, read-out: V z/f (volume of distribution after extravascular administration)
  Vd/F: 116 L/kg
[5]; male, C57BL/6, mouse, plasma, ip, 0.3 mg/kg, read-out: t 1/2z (half-life of the terminal slope) (converted)
  half-life: ~1 h
C57BL/6N mice [6]
  mechanical sensitivity, paw withdrawals to von Frey filaments: did not alter mechanical sensitivity
C57BL/6N mice [7]
  SNI-induced mechanical hypersensitivity (paw withdrawal latency): did not affect; also recorded: failed to affect the mechanical hypersensitivity
[8]
  brain level: not detected in the brain
C57BL/6N mice [9]; 0.3, 1 and 3 mg/kg i.p. 24 h after intraplantar CFA, observed over 24 h
  CFA-induced mechanical hypersensitivity (paw withdrawal latency): failed to affect the mechanical hypersensitivity; also recorded: none of the applied doses of vioprolide A affected
C57BL/6N mice [10]
  zymosan-induced weight shift towards the frontpaws (visceral nociceptive behaviour): significantly ameliorated; also recorded: significantly lower

## O=C(O)Cc1ccccc1Nc1c(Cl)cccc1Cl [diclofenac, reference compound]
C57BL/6N mice [9]; 50 mg/kg i.p. 24 h after intraplantar CFA, positive control, statistical significance not reached
  CFA-induced mechanical hypersensitivity (paw withdrawal latency): visibly attenuated

## CC(C)C[C@H](CN)CC(=O)O [pregabalin]
C57BL/6N mice [11]
  neuropathic pain behaviour in SNI model: attenuated the neuropathic pain behaviour

## O=C1N[C@@H]2C(=C[C@H](O)[C@@H](O)[C@H]2O)c2cc3c(c(O)c21)OCO3 [narciclasine]
mice; ref Burgers et al. [2024]
  cytokines (interleukin-1β, interleukin-6, tumour necrosis factor) in peritoneal lavage after zymosan-induced peritonitis: reduced the amount of cytokines
mice; ref Stark et al. [2019]
  visceral pain behaviour in murine peritonitis model: significantly inhibited visceral pain behaviour
